According to US8461389B2, “Psycho-pharmaceuticals” (University College Dublin, National University of Ireland, …, priority 2008, dated 2013):

Assays:
[1] = target: T1, dopamine D3 receptor (Homo sapiens, UniProt P35462); assay: Novascreen receptor affinity screen (competition with reference ligand), dopamine D3; type: binding; settings: 1 μM Captodiamine competing with a reference ligand; read-out: percent target inhibition, dopamine D3 receptor
T1 construct: Novascreen (contract screen)
Procedure: (§1) The Structure (FIG. 9A), receptor affinity (FIG. 9B), pharmacokinetics (FIG. 9C) and growth factor modulation (FIG. 9D) of Captodiamine are provided. Analysis of receptor affinities was performed by Novascreen™ and those displacing >20% of the natural ligand are indicated by the filled boxes. Blood levels of Captodiamine were determined by GC mass spectroscopy. In separate samples taken from a cannulated jugular at increasing time intervals following a single intraperitoneal injection of tha drug (5 mg/kg). Growth factor analysis was performed using tissue homogenates and ELISA assays specific for each growth factor (Promega). Values were analysed using a Student t-test and those with a p value<0.05 were accepted as significant and are indicated with an asterisk.
(§2) The higher the target inhibition value, the greater the affinity Captodiamine has for this particular receptor as it displaces a greater proportion of the reference ligand. This assay is an automated high throughput assay performed on cell lines that express only one type of receptor and was carried out by Novascreen (www.novascreen.com). Receptor affinity is a good starting point for determining the mechanism of action for a particular compound.

[2] = target: T2, Sigma 2 receptor (Homo sapiens, UniProt Q5BJF2); assay: Novascreen receptor affinity screen (competition with reference ligand), Sigma 2; type: binding; settings: 1 μM Captodiamine competing with a reference ligand; read-out: percent target inhibition, Sigma 2 receptor
T2 construct: Novascreen (contract screen)
T2 sequence (Q5BJF2 whole entry, species assumed): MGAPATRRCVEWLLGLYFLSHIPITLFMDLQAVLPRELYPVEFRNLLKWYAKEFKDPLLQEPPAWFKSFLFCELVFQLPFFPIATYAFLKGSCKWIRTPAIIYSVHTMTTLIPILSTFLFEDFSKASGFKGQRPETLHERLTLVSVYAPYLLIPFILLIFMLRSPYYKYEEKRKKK
Procedure: as §1, §2

[3] = target: T3, Sigma 1 receptor (Homo sapiens, UniProt Q99720); assay: Novascreen receptor affinity screen (competition with reference ligand), Sigma 1; type: binding; settings: 1 μM Captodiamine competing with a reference ligand; read-out: percent target inhibition, Sigma 1 receptor
T3 construct: Novascreen (contract screen)
T3 sequence (Q99720 whole entry, species assumed): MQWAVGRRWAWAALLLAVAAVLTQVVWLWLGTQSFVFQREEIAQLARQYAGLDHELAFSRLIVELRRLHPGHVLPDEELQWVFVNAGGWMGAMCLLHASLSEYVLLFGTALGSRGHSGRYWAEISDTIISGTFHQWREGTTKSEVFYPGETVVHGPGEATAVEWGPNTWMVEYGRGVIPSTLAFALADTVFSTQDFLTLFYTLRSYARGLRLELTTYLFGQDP
Procedure: as §1, §2

[4] = system: C57B16 mice; assay: Novel object recognition (NOR) test; type: in vivo
Description: Before training the animals with objects, they are first allowed to acclimatize to the testing environment, a white Perspex box (30 cm by 20 cm) equipped with an overhead camera. After an acclimation session, the animals are ready for the training stage. This stage involves the introduction of two identical objects (Lego Duplo) to the environment before allowing the rodent to explore for a period of five minutes: Following the training period, the rodent is removed from the environment for a delay period which can range from 5 minutes to 24 hours, depending on the type of memory being tested. After the delay, the rodent is returned to the arena, where one of the original objects has been replaced by a new one, such as a glass container.
The amount of time that the rodents spends exploring each object can be calculated by hand or by using a computer program receiving input from the overhead camera. The literature describes a variety of methods for analyzing results. One technique involves dividing the time spent exploring the novel object by the total time spent exploring either object, yielding % novel exploration. An alternative technique is used to calculate the discrimination ratio, defined as the difference in exploration time for the objects divided by total exploration time. The method of analysis should be suited to the specific experimental setup. […]

T1 sequence (P35462 whole entry, species assumed): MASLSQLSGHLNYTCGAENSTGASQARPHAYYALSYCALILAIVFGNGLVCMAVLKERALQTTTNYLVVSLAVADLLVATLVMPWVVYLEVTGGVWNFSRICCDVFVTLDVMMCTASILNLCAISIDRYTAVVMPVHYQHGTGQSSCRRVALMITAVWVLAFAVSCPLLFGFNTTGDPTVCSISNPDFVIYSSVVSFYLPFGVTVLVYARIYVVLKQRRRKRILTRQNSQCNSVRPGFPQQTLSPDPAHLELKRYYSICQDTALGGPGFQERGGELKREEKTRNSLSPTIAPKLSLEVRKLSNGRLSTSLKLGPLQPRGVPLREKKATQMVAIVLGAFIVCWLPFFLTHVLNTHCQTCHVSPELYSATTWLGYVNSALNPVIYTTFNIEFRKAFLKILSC

`CCCCSc1ccc(C(SCCN(C)C)c2ccccc2)cc1` (centres unmarked) [Captodiamine, 2-[(4-butylsulfanylphenyl)-phenyl-methyl]sulfanyl-N,N-dimethyl-ethanamin] was tested. Which inhibition at 1 µM [1] did it give?
Its inhibition at 1 µM is over 80%.

And the inhibition at 1 µM [2]?
The inhibition at 1 µM was over 20%.

And the inhibition at 1 µM [3]?
The inhibition at 1 µM was over 90%.

What about the “time investigating objects during the training phase, Novel Object Recognition Task” value ([4]; 3 mg/kg dose, one-tailed t-test) of the same molecule?
The value was “significantly longer investigating objects”.

And the “time exploring objects in training (day 1) and testing (day 2) phases, NOR” value ([4]; FIG. 8 right hand panel)?
Its value is “more time exploring objects”.
